Reference: patent USRE29337E, “Dicarboxylic acid soaps” (priority 1976, dated 1977)

How the values were obtained:
[1] = Solubilities of various fatty acid soaps in water (Example 1); type: physicochemical
Protocol: Likewise, just as the type of fatty acid used influences soap properties, so does the choice of neutralizing agent. Therefore, various available inorganic alkalis were also compared.
The procedure for making the fatty acid soaps was to dissolve the inorganic alkali in the prescribed amount of water, heating to 150° F. The fatty acid was slowly added to the alkali solution and agitated for a few minutes.

[2] = potassium soaps; cited from earlier work
[3] = Viscosity vs percentage real soap, Brookfield viscometer (Example 4, FIGURE); type: physicochemical
Text: A property of the soaps which points up this solubility advantage of C21 dicarboxylic acid soap and which is also important for C21 dicarboxylic acid utility is the viscosity of the soap. […] The solubility of the various soaps may be illustrated by the viscosity of the soaps which is shown in the accompanying figure. […] The coconut fatty acid potassium soap is somewhat poorer than the C21 dicarboxylic acid soap since its viscosity goes above twenty centipoises at 30% real soap.
This example illustrates a comparison of viscosity changes with potassium solids. Liquid soaps of fatty acids must be fairly fluid for ease in dispensing and using them. Therefore, a measure of the change in viscosity of a soap solution as percentage soap present increases is an easy method for determining the concentration of soap that can be used. The curves in the accompanying FIGURE show this relationship. A Brookfield viscometer was used to determine these curves at 25° C. […] The fact that 50% oleic acid/50% coconut soap is required to obtain a viscosity of 20 cps. at 30% real soap; whereas only 25% C21 dicarboxylic acid soap/75% tall oil fatty acid is needed to reach the same viscosity level is typical of the significance of the C21 dicarboxylic acid soaps.

[4] = Liquid soap formulations (Example 8); type: physicochemical; details: for pH of formulation: liquid soap formulations, excess base kept very low; for compatibility of pine oil with soap formulation: pine oil at 3% addition; for state of liquid soap: sodium hydroxide substituted for potassium hydroxide
Protocol: The formulation used was 12% coconut fatty acids, 3% soya or tall oil fatty acid, 4.4% KOH, 1% KCL, 80% water and a perfume as desired. In all of the soaps pine oil was added as the perfume at 3% addition.
The pine oil was compatible with the C21 dicarboxylic acid soap formulation. Of course, with C21 dicarboxylic acid soap much more concentrated, fluid soaps were prepared.
To further test the advantages of C21 dicarboxylic acid soap in liquid soaps, sodium hydroxide was substituted for the potassium hydroxide in each of the formulations mentioned above. […] In all of these formulations the excess base was kept at a very low level so that the pH's were about 9 for the C21 dicarboxylic acid and coconut fatty acid systems and about 11 for the oleic acid systems.

[5] = Shampoo formulations, soap content (Example 9); type: physicochemical; details: 99% solids
Text: A product similar to the liquid soaps in composition is shampoo. Basically, shampoos are simply perfumed soap solutions which need to lather easily and which have a fairly high soap content. Consequently, most shampoos consist from 50% to 100% of the solids as coconut fatty acid soaps. With such a formulation a viscous potassium soap of about 35% real soap (solids) can be prepared. If the triethanolamine soap is used, a 40% real soap may be formulated. As is obvious from the earlier discussion, C21 dicarboxylic acid soap would allow for greater flexibility in the amount of soap present in the shampoo and also allow for the utility of a lower priced cation, sodium.
An area closely related to the liquid soaps is shampoos. The formulations are similar but, since profuse sudsing is desired in shampoos and since low viscosity is not critical, the real soap content is more than twice as high. To get 35% soap in a formulation, coconut fatty acids or a blend of 50% coconut-50% oleic must be used. A 40% soap shampoo can be prepared using triethanolamine rather than potassium hydroxide to form the soap. […] C21 dicarboxylic acid has a major economic advantage in this application since sodium hydroxide could be used instead of potassium hydroxide.

[6] = one-half of the carboxyl groups as carboxylate anions
Text: Since each molecule of C21 dicarboxylic acid has two carboxyl groups of varying acidity it is possible to convert the most acidic of these to the soap and the molecule becomes water-soluble leaving a free acid group on each molecule. […] A soap solution of C21 dicarboxylic acid can be prepared at any pH above 6.5, so in the case of amine soaps one can prepare the soap in such a way as to have free acid groups rather than excess amine, so there is no amine odor.
Of course, these soaps all have a pH of about 6.7 and have one free carboxylic acid group in solution.
Since the C21 dicarboxylic acid has two acid groups of different strengths, it is very easy to prepare the mono or half soap of the diacid.

[7] = Fluidity and gelling of soaps (general description); type: physicochemical; details: potassium soap
Text: The C21 dicarboxylic acid soaps are made by neutralizing the C21 dicarboxylic acid. The neutralizing agent used is based on the solubility characteristics desired in the soap and economic considerations. The neutralizing agents contemplated include those of the following cations, sodium, potassium, lithium and ammonium. These cations may be obtained from such inorganic alkalis as caustic soda, caustic potash, and soda ash. Another cation which may be used is the ammonium cation. Organic amines may also be used, specifically amines such as triethylamine, monoethylamine, diethylamine, and alkanolamines, such as ethanolamine, triethanolamine and diethanolamine. The soaps made from the above listed neutralizing agents are all liquid at temperatures as low as 30° F.
For example, the potassium soap of oleic acid is a viscous fluid at about 18% solids and gels at 19%-20% solids. However, the potassium soap of oleic acid blended with 40% C21 dicarboxylic acid potassium soap is very fluid at 30 to 40% solids. This general characteristic of increased solubility is advantageous to all soap users for economy in shipping and handling. It also allows for cuts in production costs in applications where water is removed from the final product, since less water is added with the soap when a C21 dicarboxylic acid soap is used. […]

[8] = Amine soaps: dilution with water and gelling (Example 5); type: physicochemical; details: triethylamine soap; diluted slowly with water, C21 soap down to 25% solids
Protocol: The C21 dicarboxylic acid-amine soaps were also prepared using diethanolamine and monoethanol amine.

[9] = type: physicochemical
Text: is often desirable when making liquid soaps, as well as toilet soaps, having tailored properties, to blend together various fatty acids to achieve desirable characteristics and lessen the undesirable ones.

[10] = cation K, 40 percent solids in water

For CCCCCCCC(=O)O [Octanoic acid (C8), Octanoic acid], the Characteristics [1, 10] is listed as “Viscous solution”, the Characteristics ([1]; cation K, 45 percent solids in water) is listed as “Gel” and the “highest solids soaps that are still fluid at room temperature” value [2] is listed as 45%.

For CCCCCCCCCC(=O)O [Decanoic acid (C10), Decanoic acid], the “highest solids soaps that are still fluid at room temperature” value [2] is given as 40%.

In the case of “5 carboxy-4-hexyl-2-cyclohexene-1-octanoic acid and 6 carboxy-4-hexyl-2 cyclohexene-1-octanoic acid [C21 dicarboxylic acid]”, the “water solubility compared with soaps of conventional fatty acids” value [1] is reported as “water soluble at higher solids content”, the Characteristics ([1]; cation K, 20 percent solids in water) is reported as “Solution” and the Characteristics ([1]; cation K, 80 percent solids in water) is reported as “Viscous solution”. For the same compound, the Characteristics ([1]; cation Li, 10 percent solids in water) was “Solution”, the Characteristics ([1]; cation Na, 20 percent solids in water) was “Solution” and the Characteristics ([1]; cation Na, 65 percent solids in water) was “Viscous solution”. The “viscosity of blends with oleic acid soap and coconut soap” value [3] was “low viscosity blends”, the pH of formulation [4] was “about 9” and the “compatibility of pine oil with soap formulation” value ([4]; listed as C21 dicarboxylic acid soap) was “compatible”. The “compatibility of pine oil with soap formulation” value ([4]; listed as C21 dicarboxylic acid soaps) was “very compatible”, the precipitation ([4]; sodium hydroxide formulation, storage) was “no signs of precipitating after three months” and the “state of liquid soap” value [4] was “very fluid”. The gelling [5] was “does not gel” and the “water-solubility of partly neutralized acid” value [6] was “water-soluble”.

In the case of CCCCCCCC/C=C\CCCCCCCC(=O)O [potassium soap of oleic acid], the “percentage real soap at which viscosity exceeds twenty centipoises” value ([3]; potassium soap solution, 25° C.) is reported as 16 % real soap and the “percent solids at which soap is a viscous fluid” value [7] is reported as “about 18 % solids”.

With CCCCCCCC/C=C\CCCCCCCC(=O)O [oleic acid] the “gelling on dilution with water” value [8] was “a gel formed immediately upon the addition of water”, the pH of formulation [4] was “about 11” and the “fluidity of liquid soap” value ([4]; potassium hydroxide formulation, in place of coconut fatty acids) was “very viscous soap of questionable utility”. For the same compound, the “state of liquid soap” value [4] was “gels” and the “highest solids soaps that are still fluid at room temperature” value [2] was 20%.

In the case of CCCCCCCCCCCC(=O)O [Lauric acid (C12), Lauric acid], the Characteristics ([1]; cation K, 33 percent solids in water) is given as “Viscous solution”, the Characteristics ([1]; cation K, 36 percent solids in water) is given as “Gel” and the “highest solids soaps that are still fluid at room temperature” value [2] is given as 35%.

In the case of CCCCCCCC/C=C\CCCCCCCC(=O)O [Vegetable derived oleic acid (C18), oleic acid], the “Characteristics at 25° C.” value [9] is reported as “Gel”.

For CCCCCCCCC(=O)O [Nonanoic acid (G9), Nonanoic acid], the Characteristics ([1]; cation K, 35 percent solids in water) was “Viscous solution” and the Characteristics [1, 10] was “Gel”.
